In assay [1] the test system is Staphylococcus aureus. Nature of the assay: Minimum inhibitory concentration, gram positive bacteria. In kind it is cell-based.
Assay [2] concerns Bacillus subtilis. The description is as above. In kind it is cell-based.
In assay [3] the test system is Streptococcus pyogenes. The assay is described as above. In kind it is cell-based.
Assay [4] relates to Streptococcus pneumonia. The assay is described as above. In kind it is cell-based. The following applies: Streptococcus pneumoniae.
Assay [5] deals with Clostridium perfringens. The experiment in a line: microbe, parasite or virus in culture. In kind it is cell-based. The following applies: read-out: Minimum Inhibitory Concentration Clostridium perfringens.
For assay [6], the system named is Enterococcus faecalis. The experiment in a line: Minimum inhibitory concentration, gram positive bacteria. The class given is cell-based.
For assay [7], the system named is Escheria Coli. Nature of the assay: Minimum inhibitory concentration, gram negative bacteria. In kind it is cell-based.
In assay [8] the test system is Pasteurella multocida. Described as above. In kind it is cell-based.
In assay [9] the test system is Klebsiella Pneumonia. Described as above. The class given is cell-based. The following applies: Klebsiella pneumoniae.
In assay [10] the test system is Bordetella bronchispetica. Described as above. In kind it is cell-based.
Assay [11] concerns Bacteroides fragilis. The assay is described as above. In kind it is cell-based.
The subject of assay [12] is Streptococcus pyogenes. The following applies: gram positive; from J. Med. Chem., 44, 4137-4156 (2001); cited from earlier work.
Assay [13] deals with Streptococcus pneumonia. Conditions: gram positive; from J. Med. Chem., 44, 4137-4156 (2001); cited from earlier work.
Assay [14] deals with Clostridium perfringens. Conditions: gram positive; from J. F. Presscott, Antimicrobial Therapy in Veterinary Medicine, 3rd ed.; cited from earlier work.
In assay [15] the test system is Enterococcus faecalis. Conditions: gram positive; from J. Clin. Micro., 26: 11, 2415-2420 (1988); cited from earlier work.
Assay [16] concerns Pasteurella multocida. The following applies: gram negative; from J. F. Presscott, Antimicrobial Therapy in Veterinary Medicine, 3rd ed.; cited from earlier work.
Assay [17] concerns Bacteroides fragilis. The following applies: gram negative; from J. F. Presscott, Antimicrobial Therapy in Veterinary Medicine, 3rd ed.; cited from earlier work.

These results are taken from patent publication US20110071096A1, “Macrolides Having Antibiotic Activity” (IDEXX Laboratories, Inc., priority 2009, published 2011).

The structures appear in SMILES notation. Converted amounts (≈) assume the structure as drawn. Marks after values point to notes of the source that are not given here.

In the case of `CC[C@H]1OC(=O)[C@H](C)[C@@H](O[C@H]2C[C@@](C)(OC)[C@@H](O)[C@H](C)O2)[C@H](C)[C@@H](O[C@@H]2O[C@H](C)C[C@H](N(C)C)[C@H]2O)[C@](C)(O)C[C@@H](C)/C(=N\OCOCCOC)[C@H](C)[C@@H](O)[C@]1(C)O` [Roxithromycin], the MIC in assay [1] came out at 0.25 µg/mL (≈ 0.299 µM); in assay [2] it was 0.25 µg/mL (≈ 0.299 µM); in [3] it was 0.25 µg/mL (≈ 0.299 µM); in [4] it was 0.25 µg/mL (≈ 0.299 µM); in assay [5], 2 µg/mL (≈ 2.39 µM); in assay [6], 8 µg/mL (≈ 9.56 µM). The MIC in assay [7] was 32 µg/mL (≈ 38.2 µM); in [8] it was 1 µg/mL (≈ 1.19 µM); in assay [9] it was 32 µg/mL (≈ 38.2 µM); in [10], 1 µg/mL (≈ 1.19 µM); in assay [11] it was below 2 µg/mL.
Take `CC[C@H]1OC(=O)[C@H](C)[C@@H](O[C@H]2C[C@@](C)(OC)[C@@H](O)[C@H](C)O2)[C@H](C)[C@@H](O[C@@H]2O[C@H](C)C[C@H](N(C)C)[C@H]2O)[C@](C)(OC)C[C@@H](C)C(=O)[C@H](C)[C@@H](O)[C@]1(C)O` [Clarithromycin]: the MIC is below 0.25 µg/mL in assay [1], below 0.25 µg/mL in assay [2], 32 µg/mL (≈ 42.8 µM) in assay [7] and 4 µg/mL (≈ 5.35 µM) in assay [10]. The “Minimum Inhibitory Concentration Streptococcus pyogenes” value in assay [12] is given as 0.06^(1) μg/mL. The “Minimum Inhibitory Concentration Streptococcus pneumonia” value in assay [13] is on record as 0.03^(1) μg/mL. Moreover, in assay [14], the “Minimum Inhibitory Concentration Clostridium perfringens” value is given as 4* μg/mL. For the same molecule, the “Minimum Inhibitory Concentration Enterococcus faecalis” value in assay [15] is recorded as 2.7^(3) μg/mL. The “Minimum Inhibitory Concentration Pasteurella multocida” value in assay [16] is on record as 2* μg/mL. In addition, the “Minimum Inhibitory Concentration Bacteroides fragilis” value in assay [17] is 16* μg/mL.
In the case of `CC[C@H]1OC(=O)[C@H](C)[C@@H](O[C@H]2C[C@@](C)(OC)[C@@H](O)[C@H](C)O2)[C@H](C)[C@@H](O[C@@H]2O[C@H](C)C[C@H](N(C)C)[C@H]2O)[C@](C)(O)C[C@@H](C)C(=O)[C@H](C)[C@@H](O)[C@]1(C)O` [Erythromycin], the MIC in assay [1] was 0.25 µg/mL (≈ 0.341 µM); in [2] it was 0.25 µg/mL (≈ 0.341 µM); in assay [7] it was 32 µg/mL (≈ 43.6 µM); in [10], 4 µg/mL (≈ 5.45 µM). For the same molecule, the “Minimum Inhibitory Concentration Streptococcus pyogenes” value in [12] is recorded as 0.06^(1) μg/mL. For the same molecule, in [13], the “Minimum Inhibitory Concentration Streptococcus pneumonia” value is given as 0.06^(1) μg/mL. Besides, the “Minimum Inhibitory Concentration Clostridium perfringens” value in assay [14] was 4* μg/mL. Moreover, the “Minimum Inhibitory Concentration Enterococcus faecalis” value in assay [15] is 2.7^(3) μg/mL. Further, the “Minimum Inhibitory Concentration Pasteurella multocida” value in assay [16] is given as 4* μg/mL. The “Minimum Inhibitory Concentration Bacteroides fragilis” value in assay [17] is listed as >8* μg/mL.
For the molecule `CC[C@H]1OC(=O)[C@H](C)[C@@H](OC2CC(C)(OC)C(OCCCN(C)C)C(C)O2)[C@H](C)[C@@H](OC2OC(C)CC(N(C)C)C2O)[C@](C)(OC)C[C@@H](C)C(=O)[C@H](C)[C@@H](O)[C@]1(C)O` (stereo partly drawn) [Formula 2, 4″-DMAP-Clarithromycin ether], the MIC in [1] is 0.25 µg/mL; in [2], 0.25 µg/mL; in assay [3] it was 0.25 µg/mL; in assay [4], 0.25 µg/mL; in assay [5], 2 µg/mL; in assay [6] it was 8 µg/mL. Also, the MIC worked out at 32 µg/mL in assay [7]; 1 µg/mL in assay [8]; 32 µg/mL in assay [9]; 4 µg/mL in assay [10]; 2 µg/mL in assay [11].
